We go through 13 molecules from ChEMBL document CHEMBL3991601, “The target landscape of clinical kinase drugs” (Science, 2017).

Each structure is given as a SMILES string. Activity calls are given as the source filed them. Cut-off read from the data, not from the text of the source, for most assays here: actives have a measured Kd and inactives only a lower limit.

The target of one test is LIM domain kinase 2 (Homo sapiens, UniProt P53671).
The target in test [1] is Cyclin-dependent kinase 17 (Homo sapiens, UniProt Q00537).
In test [2] the target is T1, General transcription and DNA repair factor IIH helicase subunit XPD (Homo sapiens, UniProt P18074).
T1 sequence (P18074 whole entry): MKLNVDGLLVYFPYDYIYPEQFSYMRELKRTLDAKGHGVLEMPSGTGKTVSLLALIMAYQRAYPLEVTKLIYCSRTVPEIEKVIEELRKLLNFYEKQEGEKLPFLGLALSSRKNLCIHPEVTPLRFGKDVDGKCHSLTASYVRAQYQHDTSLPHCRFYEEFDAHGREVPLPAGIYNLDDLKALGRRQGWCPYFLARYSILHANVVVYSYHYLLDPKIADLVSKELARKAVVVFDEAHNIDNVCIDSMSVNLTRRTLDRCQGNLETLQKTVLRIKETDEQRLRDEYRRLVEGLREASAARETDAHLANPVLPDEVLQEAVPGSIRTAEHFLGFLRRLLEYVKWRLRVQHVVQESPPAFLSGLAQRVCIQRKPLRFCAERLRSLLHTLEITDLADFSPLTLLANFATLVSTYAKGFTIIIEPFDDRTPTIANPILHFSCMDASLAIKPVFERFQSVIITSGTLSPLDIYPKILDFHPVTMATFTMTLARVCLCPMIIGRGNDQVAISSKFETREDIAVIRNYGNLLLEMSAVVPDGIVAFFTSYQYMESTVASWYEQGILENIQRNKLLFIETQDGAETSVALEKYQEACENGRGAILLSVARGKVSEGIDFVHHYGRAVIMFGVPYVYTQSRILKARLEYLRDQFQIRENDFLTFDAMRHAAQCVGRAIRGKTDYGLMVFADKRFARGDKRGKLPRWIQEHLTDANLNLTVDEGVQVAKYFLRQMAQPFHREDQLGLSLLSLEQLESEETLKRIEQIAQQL
The settings on record: read-out: Kd apparent; k-562, colo 205, sk-n-be(2) and mv-4-11.

Test [3] concerns the target Protein-tyrosine kinase 2-beta (Homo sapiens, UniProt Q14289).
The target of test [4] is T2, EKC/KEOPS complex subunit TP53RK (Homo sapiens, UniProt Q96S44).
T2 sequence (Q96S44 whole entry): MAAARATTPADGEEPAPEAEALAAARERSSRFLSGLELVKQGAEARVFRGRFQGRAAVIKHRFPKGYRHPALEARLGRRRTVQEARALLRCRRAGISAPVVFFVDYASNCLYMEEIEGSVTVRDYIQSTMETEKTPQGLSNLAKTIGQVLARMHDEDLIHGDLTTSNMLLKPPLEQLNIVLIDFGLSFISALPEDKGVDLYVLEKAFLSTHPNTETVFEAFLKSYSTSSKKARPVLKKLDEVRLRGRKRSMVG

Test [5] has as its target T3, Exosome RNA helicase MTR4 (Homo sapiens, UniProt P42285).
T3 sequence (P42285 whole entry): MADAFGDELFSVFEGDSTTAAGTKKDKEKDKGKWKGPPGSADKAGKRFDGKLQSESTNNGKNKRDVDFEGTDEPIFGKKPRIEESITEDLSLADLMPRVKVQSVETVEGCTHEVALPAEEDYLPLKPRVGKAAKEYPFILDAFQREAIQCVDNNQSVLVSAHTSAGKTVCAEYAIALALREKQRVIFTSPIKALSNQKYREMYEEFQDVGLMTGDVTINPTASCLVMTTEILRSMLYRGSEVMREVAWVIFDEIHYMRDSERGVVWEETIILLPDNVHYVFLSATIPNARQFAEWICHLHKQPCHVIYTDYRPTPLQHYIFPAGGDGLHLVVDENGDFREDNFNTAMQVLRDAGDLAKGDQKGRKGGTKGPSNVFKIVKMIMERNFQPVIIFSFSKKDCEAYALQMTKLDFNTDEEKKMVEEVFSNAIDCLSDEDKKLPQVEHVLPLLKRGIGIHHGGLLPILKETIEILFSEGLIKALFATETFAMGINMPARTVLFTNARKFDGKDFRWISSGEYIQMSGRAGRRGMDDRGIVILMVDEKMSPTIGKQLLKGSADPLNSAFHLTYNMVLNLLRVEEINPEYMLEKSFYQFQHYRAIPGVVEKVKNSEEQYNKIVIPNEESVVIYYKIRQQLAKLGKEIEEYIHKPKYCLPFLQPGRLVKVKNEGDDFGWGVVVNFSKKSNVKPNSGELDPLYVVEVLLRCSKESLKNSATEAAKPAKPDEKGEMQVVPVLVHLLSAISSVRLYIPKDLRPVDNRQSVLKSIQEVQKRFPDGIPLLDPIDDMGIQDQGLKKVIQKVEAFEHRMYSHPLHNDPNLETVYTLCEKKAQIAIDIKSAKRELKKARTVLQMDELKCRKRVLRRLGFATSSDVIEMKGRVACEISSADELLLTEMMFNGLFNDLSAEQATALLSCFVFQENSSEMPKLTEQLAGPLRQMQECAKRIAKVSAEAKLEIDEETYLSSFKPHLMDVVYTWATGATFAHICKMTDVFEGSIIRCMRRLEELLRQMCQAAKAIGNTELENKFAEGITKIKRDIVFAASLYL

The next test addresses Activin receptor type-2B (Homo sapiens, UniProt Q13705).
The target in test [6] is Casein kinase I isoform epsilon (Homo sapiens, UniProt P49674).
In test [7] the target is Protein kinase C alpha type (Homo sapiens, UniProt P17252).
Test [8] addresses Chromodomain-helicase-DNA-binding protein 4 (Homo sapiens, UniProt Q14839).
For test [9], the target named is T4, Serine/threonine-protein kinase 3 (Homo sapiens, UniProt Q13188).
T4 sequence (Q13188 whole entry): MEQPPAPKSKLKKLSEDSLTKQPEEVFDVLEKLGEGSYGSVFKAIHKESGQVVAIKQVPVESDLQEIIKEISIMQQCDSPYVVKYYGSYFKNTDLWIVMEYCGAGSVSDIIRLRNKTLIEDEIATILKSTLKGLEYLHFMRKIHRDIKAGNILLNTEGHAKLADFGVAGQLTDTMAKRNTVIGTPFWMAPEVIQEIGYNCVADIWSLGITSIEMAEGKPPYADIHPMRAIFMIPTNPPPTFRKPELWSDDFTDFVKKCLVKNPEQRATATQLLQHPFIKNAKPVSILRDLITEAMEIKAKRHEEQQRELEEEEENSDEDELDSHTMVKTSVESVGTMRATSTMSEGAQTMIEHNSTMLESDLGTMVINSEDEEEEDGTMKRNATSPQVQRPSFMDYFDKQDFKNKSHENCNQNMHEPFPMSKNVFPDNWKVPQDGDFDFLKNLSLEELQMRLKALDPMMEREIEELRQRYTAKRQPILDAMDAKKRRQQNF
Note: in the data inactive means no Kd found up to 30 µM.

Cyclin-dependent kinase 17, sequence (Q00537 whole entry): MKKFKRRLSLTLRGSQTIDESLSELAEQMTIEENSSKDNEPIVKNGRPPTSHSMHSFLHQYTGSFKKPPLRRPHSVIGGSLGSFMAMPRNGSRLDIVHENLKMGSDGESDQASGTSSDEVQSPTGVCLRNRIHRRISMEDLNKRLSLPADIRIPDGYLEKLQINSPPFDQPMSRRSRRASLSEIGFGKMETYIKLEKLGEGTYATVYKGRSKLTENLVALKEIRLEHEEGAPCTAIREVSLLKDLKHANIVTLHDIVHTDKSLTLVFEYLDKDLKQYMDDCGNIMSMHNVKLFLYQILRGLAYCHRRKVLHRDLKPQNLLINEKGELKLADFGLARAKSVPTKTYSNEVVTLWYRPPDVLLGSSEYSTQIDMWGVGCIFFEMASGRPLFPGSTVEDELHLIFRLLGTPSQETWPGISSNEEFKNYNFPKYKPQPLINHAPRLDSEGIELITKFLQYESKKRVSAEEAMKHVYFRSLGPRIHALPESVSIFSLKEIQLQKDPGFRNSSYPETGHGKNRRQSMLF
Protein-tyrosine kinase 2-beta, sequence (Q14289 whole entry): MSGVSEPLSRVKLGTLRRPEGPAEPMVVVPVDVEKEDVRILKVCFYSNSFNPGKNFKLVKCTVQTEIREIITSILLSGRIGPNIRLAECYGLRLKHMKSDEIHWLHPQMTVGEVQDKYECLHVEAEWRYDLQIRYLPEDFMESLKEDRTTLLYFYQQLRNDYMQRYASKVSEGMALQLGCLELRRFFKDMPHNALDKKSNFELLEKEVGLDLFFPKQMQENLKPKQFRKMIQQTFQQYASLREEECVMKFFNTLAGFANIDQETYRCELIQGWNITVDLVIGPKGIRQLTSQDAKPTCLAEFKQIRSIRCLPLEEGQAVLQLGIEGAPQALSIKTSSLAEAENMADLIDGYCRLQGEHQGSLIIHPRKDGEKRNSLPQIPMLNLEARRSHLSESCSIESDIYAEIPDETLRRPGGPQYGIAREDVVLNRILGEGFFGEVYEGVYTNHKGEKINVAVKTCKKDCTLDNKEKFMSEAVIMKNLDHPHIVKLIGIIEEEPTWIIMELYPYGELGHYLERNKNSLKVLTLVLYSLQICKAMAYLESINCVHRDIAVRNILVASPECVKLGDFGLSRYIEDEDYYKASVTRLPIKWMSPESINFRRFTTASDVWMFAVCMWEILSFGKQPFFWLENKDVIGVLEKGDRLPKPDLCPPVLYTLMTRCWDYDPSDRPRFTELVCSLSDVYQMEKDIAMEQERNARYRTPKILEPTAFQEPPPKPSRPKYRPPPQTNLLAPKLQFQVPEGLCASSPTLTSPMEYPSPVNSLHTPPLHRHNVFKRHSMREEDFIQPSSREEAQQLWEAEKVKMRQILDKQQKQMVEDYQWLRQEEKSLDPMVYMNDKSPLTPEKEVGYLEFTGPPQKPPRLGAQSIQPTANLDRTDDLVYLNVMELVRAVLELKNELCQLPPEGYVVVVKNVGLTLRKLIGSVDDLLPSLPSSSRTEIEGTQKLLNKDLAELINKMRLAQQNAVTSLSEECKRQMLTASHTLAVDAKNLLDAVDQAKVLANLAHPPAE
Activin receptor type-2B, sequence (Q13705 whole entry, canonical isoform): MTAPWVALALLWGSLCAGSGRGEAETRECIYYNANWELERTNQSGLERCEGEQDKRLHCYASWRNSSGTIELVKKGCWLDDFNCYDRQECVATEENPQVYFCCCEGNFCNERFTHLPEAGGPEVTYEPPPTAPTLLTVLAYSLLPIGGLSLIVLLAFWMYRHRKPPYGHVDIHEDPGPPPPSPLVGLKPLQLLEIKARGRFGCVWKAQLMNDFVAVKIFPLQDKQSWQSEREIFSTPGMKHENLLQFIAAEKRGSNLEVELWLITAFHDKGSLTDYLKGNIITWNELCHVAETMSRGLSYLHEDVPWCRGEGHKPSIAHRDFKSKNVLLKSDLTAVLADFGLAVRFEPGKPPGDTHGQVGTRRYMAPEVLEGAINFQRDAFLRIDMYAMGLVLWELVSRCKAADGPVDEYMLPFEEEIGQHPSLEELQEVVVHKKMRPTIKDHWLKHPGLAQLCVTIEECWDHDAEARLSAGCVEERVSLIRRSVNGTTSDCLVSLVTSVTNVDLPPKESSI
Casein kinase I isoform epsilon, sequence (P49674 whole entry, canonical isoform): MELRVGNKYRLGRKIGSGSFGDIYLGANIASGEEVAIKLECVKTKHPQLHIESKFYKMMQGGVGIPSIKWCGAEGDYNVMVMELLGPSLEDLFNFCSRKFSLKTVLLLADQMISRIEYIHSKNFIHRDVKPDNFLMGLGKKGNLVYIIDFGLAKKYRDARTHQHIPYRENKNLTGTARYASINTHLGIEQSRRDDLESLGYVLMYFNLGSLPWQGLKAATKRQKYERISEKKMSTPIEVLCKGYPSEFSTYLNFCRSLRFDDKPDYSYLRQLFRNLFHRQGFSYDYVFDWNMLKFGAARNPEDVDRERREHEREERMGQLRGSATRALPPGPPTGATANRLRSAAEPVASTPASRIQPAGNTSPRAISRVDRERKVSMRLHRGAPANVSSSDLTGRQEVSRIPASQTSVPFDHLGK
LIM domain kinase 2, sequence (P53671 whole entry, the tested form may be a part): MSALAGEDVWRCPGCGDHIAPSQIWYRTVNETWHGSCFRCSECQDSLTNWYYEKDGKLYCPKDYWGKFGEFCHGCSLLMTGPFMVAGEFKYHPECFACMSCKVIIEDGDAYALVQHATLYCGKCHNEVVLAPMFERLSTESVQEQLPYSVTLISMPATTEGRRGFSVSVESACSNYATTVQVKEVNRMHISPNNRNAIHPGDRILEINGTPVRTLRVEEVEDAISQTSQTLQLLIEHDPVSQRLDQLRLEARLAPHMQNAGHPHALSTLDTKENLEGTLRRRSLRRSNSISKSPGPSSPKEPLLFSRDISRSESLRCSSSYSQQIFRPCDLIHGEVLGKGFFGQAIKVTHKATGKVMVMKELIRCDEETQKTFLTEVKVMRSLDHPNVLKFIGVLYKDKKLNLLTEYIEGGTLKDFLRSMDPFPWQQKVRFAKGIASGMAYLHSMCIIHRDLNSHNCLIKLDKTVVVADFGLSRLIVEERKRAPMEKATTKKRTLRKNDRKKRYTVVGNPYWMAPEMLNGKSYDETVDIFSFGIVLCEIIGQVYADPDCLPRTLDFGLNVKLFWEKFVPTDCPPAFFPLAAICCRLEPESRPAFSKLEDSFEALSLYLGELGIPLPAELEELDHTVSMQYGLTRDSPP

Take `COc1cc(Nc2ncc3c(n2)-c2ccc(Cl)cc2C(c2c(F)cccc2OC)=NC3)ccc1C(=O)O` [ALISERTIB]: the Kd (at LIM domain kinase 2; in test [1]; in test [2]; in test [3]; in test [4]; in [5]) was > 30 µM (inactive) throughout. The Kd (on Activin receptor type-2B; in test [6]; in test [7]; in test [8]) was > 30 µM (inactive) each time.
Regarding `CNC(=O)c1ccccc1Sc1ccc2c(/C=C/c3ccccn3)n[nH]c2c1` [AXITINIB], the Kd in test [2], in [4], in test [5], in test [7] and in test [8] was > 30 µM (inactive) each time.
Regarding `NC(=O)Nc1cc(-c2cccc(F)c2)sc1C(=O)N[C@H]1CCCNC1` [AZD-7762], the Kd was > 30 µM (inactive) on LIM domain kinase 2; > 30 µM (inactive) in [1]; > 30 µM (inactive) in test [2]; 0.608 µM (active) in [3]; > 30 µM (inactive) in test [4]; > 30 µM (inactive) in test [5]. The Kd at Activin receptor type-2B is 0.253 µM (active); in test [6] it was > 30 µM (inactive); in [7], > 30 µM (inactive); in test [8], > 30 µM (inactive).
On to `CC(C)(C)c1nc(-c2cccc(NS(=O)(=O)c3c(F)cccc3F)c2F)c(-c2ccnc(N)n2)s1` [DABRAFENIB], for which the Kd was 0.082 µM (active) on LIM domain kinase 2; 0.036 µM (active) in test [1]; > 30 µM (inactive) in test [2]; > 30 µM (inactive) in [3]; > 30 µM (inactive) in [4]; > 30 µM (inactive) in test [5]. The Kd (on Activin receptor type-2B; in test [6]; in test [7]; in test [8]) was > 30 µM (inactive) each time.
With `Cn1cc(C2=C(c3cn(C4CCN(Cc5ccccn5)CC4)c4ccccc34)C(=O)NC2=O)c2ccccc21` [ENZASTAURIN], the Kd in test [2], in test [4] and in [5] was > 30 µM (inactive) in each case.
As for `C[C@@H](Oc1cc(-n2cnc3ccc(CN4CCN(C)CC4)cc32)sc1C(N)=O)c1ccccc1C(F)(F)F` [GSK-461364], the Kd (in test [2]; in [4]; in [5]; on Activin receptor type-2B; in test [7]; in [8]) was > 30 µM (inactive) throughout.
For the molecule `O=C(Nc1cc(C(F)(F)F)cc(C(F)(F)F)c1)c1cc(Cl)ccc1O` [IMD-0354], the Kd (on LIM domain kinase 2; in test [1]; in test [2]; in test [3]; in test [4]; in [5]) was > 30 µM (inactive) each time. Moreover, the Kd (on Activin receptor type-2B; in test [6]; in [7]; in test [8]) was > 30 µM (inactive) in each case.
As for `CNC(=O)c1nn(C)c2c1C(C)(C)Cc1cnc(Nc3ccc(N4CCN(C)CC4)cc3)nc1-2` [MILCICLIB], the Kd (on LIM domain kinase 2; in [3]; in test [4]; in test [5]; at Activin receptor type-2B; in test [9]) was > 30 µM (inactive) throughout. Further, in test [7], the Kd was > 30 µM (inactive).
As for `Cc1[nH]c(/C=C2\C(=O)Nc3ccccc32)c(C)c1CCC(=O)O` [ORANTINIB], the Kd (at LIM domain kinase 2; in [1]; in test [2]; in [4]; in [5]; on Activin receptor type-2B) was > 30 µM (inactive) in each case. In addition, the Kd in test [7] and in [8] was > 30 µM (inactive) in each case.
For `NC(=O)c1c(OCc2c(F)cc(Br)cc2F)nsc1NC(=O)NCCCCN1CCCC1` [OSI-632], the Kd on LIM domain kinase 2 is > 30 µM (inactive); in [2], > 30 µM (inactive); in [4], > 30 µM (inactive); in test [5], > 30 µM (inactive); on Activin receptor type-2B it was > 30 µM (inactive); in test [6] it was 1.47 µM. Also, the Kd in test [7] and in test [8] was > 30 µM (inactive) in each case.
Take `CC(=O)NCC(=O)N1[C@@H]2CC[C@H]1c1ccc(Nc3ncc(C(F)(F)F)c(NC4CCC4)n3)cc12` [PF-03814735]: the Kd (at LIM domain kinase 2; in [1]; in test [2]; in [4]; in test [5]; on Activin receptor type-2B) was > 30 µM (inactive) each time. The Kd in test [7] and in [8] was > 30 µM (inactive) each time.
`O=C(NOCCO)c1cc(CN2OCCCC2=O)c(F)c(F)c1Nc1ccc(I)cc1F` [RO-4987655]: the Kd in [2], in test [4], in test [5], in [7] and in [8] was > 30 µM (inactive) in each case.
Consider `N#CC[C@H](C1CCCC1)n1cc(-c2ncnc3[nH]ccc23)cn1` [RUXOLITINIB], for which the Kd is > 30 µM (inactive) in test [2]; > 30 µM (inactive) in test [4]; > 30 µM (inactive) in test [5]; 16.5 µM (active) in test [7]; > 30 µM (inactive) in test [8].
